These results are taken from patent US20130005696A1, “BUFADIENOLIDE DERIVATIVES, PREPARING PROCESS THEREOF, COMPOSITION COMPRISING THE SAME AND THE USE THEREOF” (priority 2011, published 2013).

SMILES strings stand for the structures.

The test system of experiment [1] is human non-small cell lung carcinoma A549 xenograft. Kind of experiment: In vivo therapeutic effect against A549 xenograft in nude mice. The conditions noted are these: A549 xenograft, 5 mg/kg iv QW, after 21 days. The protocol:
This experiment is to evaluate the in vivo therapeutic effects of compounds bufalin, II1D-06.HCl, II1E-01.HCl and II1B-02.HCl against human-derived lung carcinoma A549 cell xenograft in nude mice.
Solvent control: 4% DMSO & 2% Tween-80 & 5% PEG-400 solution in normal saline
Compounds to be tested: bufalin, II1B-02.HCl, II1E-01.HCl, II1D-06.HCl
Formulating method: the compound was dissolved with DMSO into a stock solution, which was then diluted into an injection with a final DMSO concentration of 4%.
Positive control: Rapamycin Formulating method: it was formulated into an injection with a final DMSO concentration of 4%.
After the tumor size reaches about 200 mm^3, the mice bearing the tumor were grouped randomly into 8 groups according to the tumor size, including the groups of solvent control, positive control rapamycin 5 mg/kg, II1E-01.HCl 2 mg/kg, II1E-01.HCl 4 mg/kg, II1E-01.HCl 6 mg/kg, II1B-02.HCl 4 mg/kg, II1D-06.HCl 4 mg/kg, bufalin 1.6 mg/kg, wherein the dosage selection is based on that the maximum tolerable dosage is 1.6 mg/kg for bufalin and 6 mg/kg for II1E-01.HCl. Rapamycin was administered intravenously once a week (QW) and the other groups were administered intraperitoneally once every other day (QOD). The tumor was weighted after 21 days to calculate the inhibition rate. The equation for calculating inhibition rate (IR) is IR=(WC−WT)/WC×100%, wherein, WC represents the tumor weight of the control group, and WT represents the tumor weight of the treating group.

For experiment [2], the system named is human hepatic carcinoma HepG2 xenograft. Kind of experiment: Therapeutic effect against HepG2 xenograft in nude mice. The format is in vivo, Balb/c nude mice. To be noted: QW × 14 d. The protocol: (§1) This experiment is to investigate the in vivo inhibitory effect of II1E-01.HCl on growth of human-derived hepatic carcinoma HepG2 cell, human-derived breast carcinoma MDA-MB-231 cell, human-derived lung carcinoma H460 cell, human-derived colon carcinoma HCT-116 cell, human-derived […] MV-4-11 cell xenografts in nude mice.
(§2) Formulation of solvent control (5% anhydrous ethanol & 5% aqueous glucose solution): 2.5 mL anhydrous ethanol was added into a 50 mL tube, followed by addition of 47.5 mL 5% glucose solution for injection followed by shaking, and stored at room temperature before use.
(§3) Formulation of the preparations of the compounds to be tested: formulations with concentrations of 0.4 mg/mL and 0.6 mg/mL were prepared respectively. An appropriate amount of II1E-01.HCl was weighted and put into a 50 mL tube, followed by addition of corresponding volume of solvent to get the desired concentration and mixed using a vortex mixer. After the solid was dissolved completely, the solution was subpackaged into 4 mL vials and stored at refrigerated condition (2-8° C.) until use.
(§4) Experimental animals: Balb/c nude mice (male, six weeks old).
HepG2 cells were in vitro cultured to be proliferated. The cells in the log phase of growth were collected and resuspended in DMEM serum-free medium, and then implanted subcutaneously into the axilla of the right forelimb of nude mice. After 11 days, the tumor size reached about 250 mm^3. The mice bearing the tumor were grouped according to the tumor size into 6 groups, including the group of solvent control, groups of positive controls (Rapamycin 10 mg/kg and Vinorelbine 8 mg/kg), and groups of low (2 mg/kg), middle (4 mg/kg) and high (6 mg/kg) dosages of the testing compound II1E-01.HCl. Each group was administered intravenously at tail. In the solvent control group, the solvent control solution was administered intravenously once every other day (QOD). In the low, middle and high dosage groups of II1E-01.HCl, II1E-01.HCl was administered intravenously once every other day (QOD). In the positive control groups, Rapamycin 10 mg/kg and Vinorelbine 8 mg/kg were administered once a week (QW). The animals were given the drugs for two weeks. In the two week time period, the growth of tumor and the body weight of the mice were observed.
Two weeks after administering (the 25th day after the implantation), the tumor weight and inhibition rate were calculated, and results are listed in Table 5.

Experiment [3] has as its system HeLa human cervical carcinoma cell line. Kind of experiment: In vitro antitumor activity assay (SRB), HeLa. It is filed as cell-based. The conditions noted are these: read-out: IC50, inhibitory activity on cell proliferation of HeLa cell line. The source says:
(§5) HeLa human cervical carcinoma cell line, A-549 human non-small cell lung carcinoma cell line, NCI-H2228 human lung carcinoma cell line, NCI-H460 human lung carcinoma cell line, MDA-MB-231 human breast carcinoma cell line, MCF-7 human breast carcinoma cell line, Bel-7402 human hepatic carcinoma cell line, Hep3B human hepatic carcinoma cell line, QGY-7703 human hepatic carcinoma cell line, MV-4-11 human leukemic cell line, DAUDI human leukemic cell line, Jurkat human leukemic cell line, A498 renal carcinoma cell line, LoVo human colon carcinoma cell line, HCT1116 human colon carcinoma cell line, A431 human skin carcinoma cell line, PANC-1 human pancreatic carcinoma cell line, U87-MG human brain carcinoma cell line, SH-SY5Y human brain carcinoma cell line, RPMI-8226 human bone carcinoma cell line, HT1080 human fibrosarcoma cell line, PC-3 human prostatic carcinoma cell line, AGS human gastric adenocarcinoma cell line, and BGC-823 human gastric adenocarcinoma cell line were purchased from the Cell Bank of the Chinese Academy of Sciences.
(§6) The positive control is bufalin (formulated according to the common method), its purity is 98% or more by HPLC-UV and its structure is identified by NMR. The compounds to be tested and the positive control were diluted with normal saline with a concentration gradient of 10^−4 M, 10^−5 M, 10^−6 M, 10^−7 M and 10^−8 M.
(§7) According to cell growth rate, tumor cells in the log phase of growth were seeded into 96-well culture plates at 100 μL per well, and allowed to attach for 24 hours, followed by addition of a test compound or positive control at 10 μL per well. For each concentration, the test was carried out in triplicate wells. Solvent control wells with addition of normal saline into cell culture and a blank well containing only cell culture medium but without cells for zeroing were also included. The tumor cells were incubated for 72 hours at 37° C. under 5% CO2, and then the culture medium (RPMI-1640) was removed. The cells were fixed with 10% cool TCA by incubating for 1 h at 4° C., washed with distilled water for 5 times, and dried naturally in the air. A solution of SRB (Sigma) (4 mg/mL) in 1% glacial acetic acid was added at 100 μL per well, and the cells were stained for 15 minutes at room temperature, and the supernatant was discarded. The plates were washed for 5 times with 1% acetic acid, and dried in air. Finally, Tris solution was added at 150 μL per well, and the absorbance (A) was measured at a wavelength of 515 nm using a microplate reader. The growth inhibition on tumor cell proliferation was calculated according to the following equation:
(§8) Growth Inhibition (%)=[(Absorbance of negative control−Absorbance of blank)−(Absorbance of sample−Absorbance of blank)]/(Absorbance of negative control−Absorbance of blank)×100%
(§9) Drug concentration: 10 μM, 1 μM, 0.1 μM, 10 nM, 1 nM, 0.1 nM.
(§10) IC50 was fitted by GraphPad Prism 4.

The test system of experiment [4] is A-549 human non-small cell lung carcinoma cell line. Kind of experiment: In vitro antitumor activity assay (SRB), A549. It is filed as cell-based. The conditions noted are these: Homo sapiens; A549, Table 2; read-out: IC50, inhibition of cell proliferation, A549.
Excerpt: as §5, §6, §7, §8, §9, §10

For experiment [5], the system named is MCF-7 human breast carcinoma cell line. Kind of experiment: In vitro antitumor activity assay (SRB), MCF-7. The format is cell-based. To be noted: Homo sapiens, MCF7; MCF-7, Table 2; read-out: IC50, inhibition of cell proliferation, MCF-7.
Excerpt: as §5, §6, §7, §8, §9, §10

Experiment [6] deals with PC-3 human prostatic carcinoma cell line. Kind of experiment: In vitro antitumor activity assay (SRB), PC-3. The format is cell-based. The conditions noted are these: Homo sapiens, Prostatic carcinoma cell; PC-3, Table 2; read-out: IC50, inhibition of cell proliferation, PC-3.
Excerpt: as §5, §6, §7, §8, §9, §10

Experiment [7] concerns LoVo human colon carcinoma cell line. Kind of experiment: In vitro antitumor activity assay (SRB), LoVo. It is filed as cell-based. To be noted: Table 2, read-out: IC50, inhibition of cell proliferation, LoVo.
Excerpt: as §5, §6, §7, §8, §9, §10

The test system of experiment [8] is human-derived leukaemia MV-4-11 xenograft. The experiment is described as follows: Therapeutic effect against MV-4-11 xenograft in nude mice. The format is in vivo, Balb/c nude mice. The protocol: as §1, §2, §3, §4
MV-4-11 cells were in vitro cultured to be proliferated. The cells in the log phase of growth were collected and resuspended in IMDM serum-free medium, and then implanted subcutaneously into the axilla of the right forelimb of nude mice. After 37 days, the tumor size reached about 270 mm^3. The mice bearing the tumor were grouped by randomized block method according to the tumor size into 3 groups, which contain 6 mice in each group and include the group of solvent control, group of positive control (Sunitinib 40 mg/kg), and group of the testing compound II1E-01.HCl (4 mg/kg QOD). In the positive control group, sunitinib was administered intragastrically once daily (QD). In the group of II1E-01.HCl, II1E-01.HCl was administered intravenously at tail once every other day (QOD). The animals were given the drugs for 21 days, during which the growth of tumor and the body weight of the mice were observed.
After continuously administering for 21 days (the 58th day after the implantation), the tumor weight and inhibition rate were calculated, and results are listed in Table 9. […] In the group of the testing compound II1E-01.HCl (4 mg/kg QOD), the tumor also completely disappeared at 14th day after administration, and the inhibition rate was 100.00% (P<0.01) at the end of the experiment.

Take `CO[C@H]1C[C@@H]2CC[C@@H](C)[C@@](O)(O2)C(=O)C(=O)N2CCCC[C@H]2C(=O)O[C@H]([C@H](C)C[C@@H]2CC[C@@H](O)[C@H](OC)C2)CC(=O)[C@H](C)/C=C(\C)[C@@H](O)[C@@H](OC)C(=O)[C@H](C)C[C@H](C)/C=C/C=C/C=C/1C` [rapamycin, Rapamycin, reference compound]: the “Inhibition Rate (%)” value worked out at 58.86% in experiment [1]; 37.23% in experiment [2] (10 mg/kg iv, 10 mg/kg); 37.23% in experiment [2] (10 mg/kg iv, listed as Rapamycin, 10 mg/kg). Further, the “Tumor Weight(g) Mean ± SE” value in experiment [1] was found to be 0.6925 ± 0.0652 g; in experiment [2] (10 mg/kg iv), 0.4806 ± 0.0269 g.

Take `C[C@]12CC[C@H](OC(=O)NCC3CCCCN3)C[C@H]1CC[C@@H]1[C@@H]2CC[C@]2(C)[C@@H](c3ccc(=O)oc3)CC[C@]12O` (some centres unmarked) [II1E-03]: the IC50 came to 0.8 nM in experiment [3]; 0.58 ± 0.17 nM in experiment [4]; 31 ± 3.07 nM in experiment [5]; 14.8 ± 1.12 nM in experiment [6]; 23.4 ± 3.68 nM in experiment [7].

Regarding `CCN(CC)CCNC(=O)O[C@H]1CC[C@@]2(C)[C@H](CC[C@@H]3[C@@H]2CC[C@]2(C)[C@@H](c4ccc(=O)oc4)CC[C@]32O)C1` [II1B-02], the IC50 in experiment [3] was 3.73 nM; in experiment [4] it was 0.39 ± 0.08 nM; in experiment [5] it was 18.8 ± 2.68 nM; in experiment [6], 20.1 ± 4.08 nM; in experiment [7] it was 15.7 ± 1.67 nM.

In the case of `CN(C)CCN(C)C(=O)O[C@H]1CC[C@@]2(C)[C@H](CC[C@@H]3[C@@H]2CC[C@]2(C)[C@@H](c4ccc(=O)oc4)CC[C@]32O)C1` [II1B-03], the IC50 turned out to be 1.58 nM in experiment [3]; 2.81 ± 0.43 nM in experiment [4]; 10.6 ± 3.04 nM in experiment [5]; 27.3 ± 2.46 nM in experiment [6]; 13.4 ± 3.37 nM in experiment [7].

With `CCNCCNC(=O)O[C@H]1CC[C@@]2(C)[C@H](CC[C@@H]3[C@@H]2CC[C@]2(C)[C@@H](c4ccc(=O)oc4)CC[C@]32O)C1` [II1B-05], the IC50 in experiment [3] was found to be 1.65 nM; in experiment [4] it was 2.83 ± 0.9 nM; in experiment [5] it was 7.98 ± 1.9 nM; in experiment [6], 12.6 ± 0.86 nM; in experiment [7] it was 14.4 ± 0.76 nM.

Regarding `CCC1=C[C@@H]2CN(C1)Cc1c([nH]c3ccccc13)[C@@](C(=O)OC)(c1cc3c(cc1OC)N(C)[C@H]1[C@@](O)(C(=O)OC)[C@H](OC(C)=O)[C@]4(CC)C=CCN5CC[C@]31[C@@H]54)C2` [Vinorelbine, reference compound], the “Tumor Weight(g) Mean ± SE” value in experiment [2] (8 mg/kg iv) came out at 0.4719 ± 0.0660 g. For the same compound, in experiment [2] (8 mg/kg iv, 8 mg/kg), the “Inhibition Rate (%)” value is given as 38.36%.

As for `CCN(CC)CCNC(=O)c1c(C)[nH]c(/C=C2\C(=O)Nc3ccc(F)cc32)c1C` [Sunitinib, reference compound], the “day after administration at which the tumor completely disappeared” value in experiment [8] (40 mg/kg ig QD) came to 10 days. Also, the “Tumor Weight(g) Mean ± SE” value in experiment [8] (40 mg/kg ig, QD × 21 d) stood at 0.0000 ± 0.0000 g. The “Inhibition Rate (%)” value in experiment [8] (40 mg/kg ig, QD × 21 d, 40 mg/kg) was determined as 100.00%.

With `C[C@]12CC[C@H](OC(=O)N3CCCNCC3)C[C@H]1CC[C@@H]1[C@@H]2CC[C@]2(C)[C@@H](c3ccc(=O)oc3)CC[C@]12O` [II1D-06], the IC50 is 0.45 nM in experiment [3]; 0.87 ± 0.02 nM in experiment [4]; 2.13 ± 0.29 nM in experiment [5]; 1.25 ± 0.46 nM in experiment [6]; 0.58 ± 0.29 nM in experiment [7].
